{
  "source": "patent US11234954B2",
  "about": "“Low-dose doxepin for treatment of sleep disorders in elderly patients” (Pernix Sleep, Inc., priority 2006, dated 2022)",
  "key": {"[1]": {"tested_on": "primary elderly insomnia patients with sleep maintenance difficulties", "test": "Clinical Global Impressions (CGI), Phase III elderly study (Example 2)", "type": "in vivo, human", "procedure": "Subjective Variables: Subjective efficacy variables were subjective TST (sTST), subjective WASO (sWASO), LSO, subjective NAASO (sNAASO), and sleep quality. These variable were assessed using a questionnaire completed in the morning following each PSG recording night. Drowsiness, ability to function, and total nap time during the day were assessed using an evening questionnaire completed prior to PSG recording at Nights −6, −5, 1, 15, 29, 57, and 85. Other secondary subjective efficacy variables included the 2-item Clinical Global Impressions (CGI) scale for severity of illness and therapeutic effect completed by a clinician; the 5-item CGI scale pertaining to therapeutic effect completed by the subject; the Insomnia Severity Index (ISI) completed by the subject, and a subjective assessment of sTST, LSO, and sleep quality collected through the IVRS.\nClinical Global Impressions (CGI) ns (CGI) consist of two questions addressed to the clinician relating to the severity of illness and therapeutic effect of the study drug and five questions addressed to the patient relating to the therapeutic effect of the drug."}, "[2]": {"tested_on": "primary elderly insomnia patients with sleep maintenance difficulties", "test": "Safety and TEAEs, Phase III elderly study (Example 2)", "description": "A phase III, randomized, double-blind, placebo-controlled, parallel-group, multicenter study was conducted to assess the long term efficacy and safety of two dose levels of doxepin HCl, 1 mg and 3 mg, in primary elderly insomnia patients with sleep maintenance difficulties.\nDoxepin 1 mg tablets or 3 mg tablets (lot number 3044567) were administered as a single oral dose for 85 consecutive nights during the 12-week Double-blind Treatment Period."}, "[3]": {"tested_on": "patients aged 65 years or older with primary sleep maintenance insomnia", "conditions": "Per-Protocol N = 71; for WTDS, Mean (primary efficacy variable): WTDS typically expressed in minutes", "procedure": "As used herein, the term “polysomnography” (PSG) refers a diagnostic test during which a number of physiologic variables are measured and recorded during sleep. Physiologic sensor leads are placed on the patient in order to record brain electrical activity, eye and jaw muscle movement, leg muscle movement, airflow, respiratory effort (chest and abdominal excursion), EKG and oxygen saturation. Information is gathered from all leads and fed into a computer and outputted as a series of waveform tracings which enable the technician to visualize the various waveforms, assign a score for the test, and assist in the diagnostic process. The primary efficacy variable, wake time during sleep (WTDS) and various secondary efficacy variables are all based on the PSG and are defined as follows.\n“Wake Time During Sleep” (WTDS), typically expressed in minutes, is the number of wake events (epochs) after the onset of persistent sleep and prior to final awakening, divided by two. Each epoch is defined as a 30-second duration on the PSG recording.\n“Wake Time After Sleep” (WTAS), typically expressed in minutes, is the number of epochs after the final awakening until the end of PSG recording (i.e., a wake epoch immediately prior to the end of the recording), divided by two.\n“Wake After Sleep Onset” (WASO) is the sum of WTDS and WTAS.\n“Latency to Persistent Sleep” (LPS), typically expressed in minutes, is the number of epochs from the beginning of the PSG recording (lights-out) to the start of the first 20 consecutive non-wake epochs, divided by two.\n“Total Sleep Time” (TST), typically expressed in minutes, is the number of non-wake epochs from the beginning of the PSG recording to the end of the recording, divided by two.\n“Sleep Efficiency” (SE) is the TST divided by the time in bed (8 hours), multiplied by 100 and expressed as a percentage. This also can be divided into SE for each third-of-the-night of sleep, reflecting the SE for each 160 minute time interval across the night. Finally, SE can be measured for individual hours during the night or sleep period, for example the final hour of the sleep period.\n“NAASO” refers to the number of awakenings after sleep onset.\nA randomized, multi-center, double-blind, placebo-controlled, four-period crossover, dose-response study was designed to assess the effects of doxepin (1 mg, 3 mg and 6 mg) compared with placebo in patients aged 65 years or older with primary sleep maintenance insomnia. Patients received a single-blind placebo for two consecutive nights during the PSG screening period, and double-blind study drug for two consecutive nights during each of the four treatment periods. […] Patients were allowed to leave the sleep center during the day after each PSG assessment was complete. A 5- or 12-day study drug-free interval separated each PSG assessment visit. The duration of study participation per patient was approximately 7 to 11 weeks.\nPatients who qualified for study entry, based on the screening PSG assessments, were randomized to a treatment sequence using a Latin square design. A final study visit was performed for patients either after completion of the four treatment periods or upon discontinuation from the study. Efficacy assessments were made at each visit and safety assessments were performed throughout the study.\nThe main inclusion criteria were male and/or female patients, aged 65 years or older, in good general health with at least a 3-month history of Diagnostic and Statistical Manual of Mental Disorders, fourth Edition (DSM-IV)-defined primary insomnia, reporting each of the following on four of seven nights prior to PSG screening: ≤6.5 hours of total sleep time (TST), ≥60 min of wakefulness after sleep onset (WASO) and ≥20 min of latency to sleep onset (LSO). Doxepin HCl 1 mg, 3 mg and 6 mg capsules, and placebo capsules, were provided as a single dose for oral administration.\nThe primary efficacy assessment was WTDS."}, "[4]": {"tested_on": "Adult Patients (Ages 18-64) with Primary Insomnia", "test": "PSG efficacy, four-period crossover dose-response study in adults 18-64 (Example 3)", "type": "in vivo, human", "conditions": "for LPS, Mean / SE, Mean / TST, Mean / WASO, Mean / WTAS, Mean: Per-Protocol N = 61; for WTDS, observed mean (±SD) (primary efficacy variable): WTDS typically expressed in minutes", "source_text": "The primary and secondary efficacy assessments were as described above in Example 1."}},
  "note": "Read-outs that look alike come from different tables or passages of the source.",
  "data": [
    {"smiles": "CN(C)CCC=C1c2ccccc2COc2ccccc21", "note": "(mixture of isomers) [Doxepin]", "values": [
      {"measurement": "mean CGI (clinician-rated) severity of illness and therapeutic effect scores compared with placebo", "setting": "[1]; Night 85, both doxepin treatment groups (1 mg, 3 mg)", "value": "statistically significant improvements"},
      {"measurement": "CGI (subject-rated) scale of therapeutic effect, all five parameters, compared with placebo", "setting": "[1]; after 85 nights of treatment, both doxepin groups (1 mg, 3 mg)", "value": "statistically significant improvements"},
      {"measurement": "deaths during the study or within 30 days following last dose", "setting": "[2]; 1 mg and 3 mg", "value": "no reported deaths"},
      {"measurement": "Infections and Infestations, subjects (%)", "setting": "[2]; 1 mg, N = 77", "value": "12 (16%)"},
      {"measurement": "Upper respiratory tract infection, subjects (%)", "setting": "[2]; 1 mg, N = 77", "value": "2 (3%)"},
      {"measurement": "Urinary tract infection, subjects (%)", "setting": "[2]; 1 mg, N = 77", "value": "2 (3%)"},
      {"measurement": "Infections and Infestations, subjects (%)", "setting": "[2]; 3 mg, N = 82", "value": "11 (13%)"},
      {"measurement": "Upper respiratory tract infection, subjects (%)", "setting": "[2]; 3 mg, N = 82", "value": "1 (1%)"},
      {"measurement": "Urinary tract infection, subjects (%)", "setting": "[2]; 3 mg, N = 82", "value": "0 (0%)"},
      {"measurement": "LPS, Mean", "setting": "[3]; 1 mg", "value": 28.3, "unit": "min"},
      {"measurement": "NAASO, Mean", "setting": "[3]; 1 mg", "value": 12.3},
      {"measurement": "SE, Mean", "setting": "[3]; 1 mg", "value": 78.5, "unit": "%"},
      {"measurement": "TST, Mean", "setting": "[3]; 1 mg", "value": 376.8, "unit": "min"},
      {"measurement": "WASO, Mean", "setting": "[3]; 1 mg", "value": 80.5, "unit": "min"},
      {"measurement": "WTAS, Mean", "setting": "[3]; 1 mg", "value": 10.4, "unit": "min"},
      {"measurement": "WTDS, Mean (primary efficacy variable)", "setting": "[3]; 1 mg", "value": 70.1},
      {"measurement": "WTDS, Mean (primary efficacy variable)", "setting": "[3]; 1 mg, listed as doxepin", "value": "70.1 (32.78)"},
      {"measurement": "LPS, Mean", "setting": "[3]; 3 mg", "value": 23.7, "unit": "min"},
      {"measurement": "NAASO, Mean", "setting": "[3]; 3 mg", "value": 12.8},
      {"measurement": "SE, Mean", "setting": "[3]; 3 mg", "value": 81.0, "unit": "%"},
      {"measurement": "TST, Mean", "setting": "[3]; 3 mg", "value": 388.8, "unit": "min"},
      {"measurement": "WASO, Mean", "setting": "[3]; 3 mg", "value": 72.3, "unit": "min"},
      {"measurement": "WTAS, Mean", "setting": "[3]; 3 mg", "value": 5.9, "unit": "min"},
      {"measurement": "WTDS, Mean (primary efficacy variable)", "setting": "[3]; 3 mg", "value": 66.4},
      {"measurement": "WTDS, Mean (primary efficacy variable)", "setting": "[3]; 3 mg, listed as doxepin", "value": "66.4 (31.56)"},
      {"measurement": "LPS, Mean", "setting": "[3]; 6 mg", "value": 22.4, "unit": "min"},
      {"measurement": "NAASO, Mean", "setting": "[3]; 6 mg", "value": 12.5},
      {"measurement": "SE, Mean", "setting": "[3]; 6 mg", "value": 82.8, "unit": "%"},
      {"measurement": "TST, Mean", "setting": "[3]; 6 mg", "value": 397.4, "unit": "min"},
      {"measurement": "WASO, Mean", "setting": "[3]; 6 mg", "value": 65.2, "unit": "min"},
      {"measurement": "WTAS, Mean", "setting": "[3]; 6 mg", "value": 5.0, "unit": "min"},
      {"measurement": "WTDS, Mean (primary efficacy variable)", "setting": "[3]; 6 mg", "value": 60.2},
      {"measurement": "WTDS, Mean (primary efficacy variable)", "setting": "[3]; 6 mg, listed as doxepin", "value": "60.2 (28.00)"},
      {"measurement": "LPS, Mean", "setting": "[4]; 1 mg", "value": 30.1, "unit": "min"},
      {"measurement": "SE, Mean", "setting": "[4]; 1 mg", "value": 84.7, "unit": "%"},
      {"measurement": "TST, Mean", "setting": "[4]; 1 mg", "value": 406.5, "unit": "min"},
      {"measurement": "WASO, Mean", "setting": "[4]; 1 mg", "value": 47.3, "unit": "min"},
      {"measurement": "WTAS, Mean", "setting": "[4]; 1 mg", "value": 4.1, "unit": "min"},
      {"measurement": "WTDS, observed mean (±SD) (primary efficacy variable)", "setting": "[4]; 1 mg", "value": "43.2 (28.2)"},
      {"measurement": "LPS, Mean", "setting": "[4]; 3 mg", "value": 30.8, "unit": "min"},
      {"measurement": "SE, Mean", "setting": "[4]; 3 mg", "value": 86.5, "unit": "%"},
      {"measurement": "TST, Mean", "setting": "[4]; 3 mg", "value": 415.2, "unit": "min"},
      {"measurement": "WASO, Mean", "setting": "[4]; 3 mg", "value": 38.6, "unit": "min"},
      {"measurement": "WTAS, Mean", "setting": "[4]; 3 mg", "value": 5.2, "unit": "min"},
      {"measurement": "WTDS, observed mean (±SD) (primary efficacy variable)", "setting": "[4]; 3 mg", "value": "33.4 (21.87)"},
      {"measurement": "LPS, Mean", "setting": "[4]; 6 mg", "value": 27.9, "unit": "min"},
      {"measurement": "SE, Mean", "setting": "[4]; 6 mg", "value": 86.9, "unit": "%"},
      {"measurement": "TST, Mean", "setting": "[4]; 6 mg", "value": 417.2, "unit": "min"},
      {"measurement": "WASO, Mean", "setting": "[4]; 6 mg", "value": 38.8, "unit": "min"},
      {"measurement": "WTAS, Mean", "setting": "[4]; 6 mg", "value": 2.5, "unit": "min"},
      {"measurement": "WTDS, observed mean (±SD) (primary efficacy variable)", "setting": "[4]; 6 mg", "value": "35.3 (25.17)"}
    ]}
  ]
}
